Experimental data taken from patent US5135917A, “Interleukin receptor expression inhibiting antisense oligonucleotides” (Nova Pharmaceutical Corporation, priority 1990, dated 1992).

Key:
Assay type in all cases: cell-based
Murine Swiss 3T3 cells = assay: IL-1 stimulated prostaglandin E2 synthesis, murine fibroblasts; conditions: oligonucleotides 30 μm for 48 hours, then IL-1β 10 μ/ml for 6 hours, control 60
Experimental: (§1) 1. IL-1 stimulated prostaglandin E2 synthesis.
(§2) Effects of expression of IL-1 receptors by murine and human fibroblasts were assessed as follows Murine Swiss 3T3 cells (American Type Culture Collection ATCC CCL 92) or human dermal fibroblasts (primary culture) were grown in 96-well plates in Dulbecco's modified Eagles medium containing either 10% calf serum or 10% fetal bovine serum, respectively (Grand Island Biological Company), to confluency. The culture medium was replaced with identical medium except that the serum had been heat-inactivated at 65° C. for 15 minutes to inactivate nucleases. Oligonucleotides (30 μm) were added to the cultures and incubated for 48 hours. […] Oligonucleotides (phosphorothioates) S0-1, S0-2 and S0-3 are antisense to murine IL-1 receptor DNA and S0-6 is antisense to human IL-1 receptor DNA.

human dermal fibroblasts [1] = assay: IL-1 stimulated prostaglandin E2 synthesis, human fibroblasts; conditions: Human cells; oligonucleotides 30 μm for 48 hours, then IL-1β 10 μ/ml for 6 hours; control 25
Experimental: as §1, §2

human dermal fibroblasts [2] = assay: Liposome delivery, IL-1 stimulated PGE2 in human dermal fibroblasts; conditions: liposomes; S0-6 30 μM; IL-1 10 U/ml for 4 hours; control (empty liposome) 65
Experimental: For the experiment human dermal fibroblasts were incubated for 18 hours with IL-1, 100 u/ml., to down-regulate existing receptors. The cells were then rinsed three times with phosphate-buffered saline containing 2 mM calcium and 0.1 mM magnesium to remove IL-1, then incubated 30 minutes. Liposomes were then added and the mixture was incubated for 30 minutes. Finally, polyethylene glycol (M.W.6000) was added for 1 minute, then the cultures were rinsed three times in culture medium. Cultures were incubated for eight hours, then stimulated with IL-1, 10 U/ml for 4 hours. Media were collected for radioimmunoassy of PGE2.

Substance: IL-1: cytokine interleukin 1, used as stimulus of prostaglandin E2 synthesis
- PGE2, pg/well (Murine Swiss 3T3 cells): 375 pg/well
- PGE2, pg/well (human dermal fibroblasts [1]): 285 pg/well
- PGE2, pg/well (human dermal fibroblasts [2]): 398 pg/well
